The text below walks through data of US20250084091A1, “INHIBITORS OF SARS-COV-2” (The Texas A&M University System, priority 2021, published 2025).

By IC50 is commonly meant the concentration at which inhibition is half-maximal. As a reminder, the CC50 is the concentration giving 50% cytotoxicity. Low readings indicate harm at low concentration, high ones better tolerance by the cells.

In brackets after ≈: the same amount, converted by molar mass. A value given as a limit tells only on which side of the number the result lay.

Data set [1] concerns the target SARS-CoV-2 main protease (Mpro) (Severe acute respiratory syndrome coronavirus 2, UniProt P0DTD1). The data set is described as follows: biochemical. Particulars: Table 2; read-out: Enzyme IC50.
Data set [2] concerns SARS-CoV-2 (strain USA-WA1/2020). As to the kind of experiment: microbe, parasite or virus in culture. Type of data set: cell-based. As to conditions: Severe acute respiratory syndrome coronavirus 2; Table 2; SARS-CoV-2 infected HeLa-ACE2 cells; read-out: CoV-2 HeLa EC50.
In the next data set the test system is HeLa-ACE2 cells. As to the kind of experiment: cells. Type of data set: cell-based. Particulars: Table 2, total cell count in infected plates.
Data set [3] can be described thus: Uninfected host cell cytotoxicity counter screen. Type of data set: cell-based. Particulars: human. In outline: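 HeLa-ACE2 cells, uninfected, seeded at 400 cells/well with compounds and held 24 hours at 37° C., 5% CO2. Dead cells stained with Image-iT DEAD green, fixed in 4% paraformaldehyde, DAPI-counterstained and imaged. Data normalized to DMSO and 40 μM puromycin controls; concentration responses in triplicate.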
For orientation: The purpose of a counterscreen is to sort out artefacts and off-target activity.

The next data set concerns CoV-2 in Vero cells. The data set is described as follows: CoV-2 Vero antiviral assay. Type of data set: cell-based, SARS-CoV-2. Particulars: Severe acute respiratory syndrome coronavirus 2, Vero, read-out: CoV-2 Vero EC50/100.

With `Cc1cncc(C(=O)N2CCC(=C3c4ccccc4C=Cc4ccccc43)CC2)c1` [NZ-793, (5-methyl-3-pyridyl)-[4-(2-tricyclo[9.4.0.03,8]pentadeca-1(11),3(8),4,6,9,12,14-heptaenylidene)-1-piperidyl]methanone], in data set [1], the IC50 came out at 0.12 µM. Besides, the figures for the EC50 (in data set [2]; with HeLa-ACE2 cells; in the data set with CoV-2 in Vero cells) were 0.527 µM, 0.52 µM and 5 mg/L (≈ 12.7 µM), respectively. In data set [3], this compound returned a CC50 at 24 h of 33.1 µM.
In the same order, the values of `Cc1cncc(C(=O)N2CCN(C(c3ccccc3)c3cccc(F)c3)CC2)c1` (centres unmarked) [MKP-1225, 1-[(3-fluorophenyl)(phenyl)methyl]-4-(5-methylpyridine-3-carbonyl)piperazine] are 0.038 µM, 0.21 µM, 0.481 µM, 2.5 mg/L (≈ 6.42 µM) and more than 39.8 µM.
The corresponding values for `Cc1cncc(C(=O)N2CCN(C(c3ccccc3)c3cccnc3)CC2)c1` (centres unmarked) [MKP-1217, 1-(5-methylpyridine-3-carbonyl)-4-[phenyl(pyridin-3-yl)methyl]piperazine] are 0.32 µM, 0.475 µM, 1.31 µM, 10 mg/L (≈ 26.8 µM) and more than 39.8 µM.
The corresponding values for `Cc1cncc(C(=O)N2CCN(C(c3cccc(F)c3)c3cccc(F)c3)CC2)c1` [MKP-1268, 1-[bis(3-fluorophenyl)methyl]-4-(5-methylpyridine-3-carbonyl)piperazine] are 0.036 µM, 0.111 µM, 0.143 µM, 2.5 mg/L (≈ 6.14 µM) and more than 39.8 µM.
